Data: patent publication US9862724B2, “Pyrazolo[1,5-a]pyrimidine-based compounds, compositions comprising them, and methods of their use” (LEXICON PHARMACEUTICALS, INC., priority 2013, dated 2018)
Where two headings read alike, the source gives them in different places.

What was measured:
[1] = biological target: T1, AAK1 (full-length human protein) (Homo sapiens, UniProt Q2M2I8); assay: P81 filter plate assay; type: biochemical; conditions: 0.2 nM 2x AAK1, Mu2 substrate, 33P-ATP; class symbols
T1 construct: NP_055726.2
Experimental: Compounds were serially diluted into a Labcyte LDV plate (Labcyte, cat# LP-0200) using a Mutiprobe (PerkinElmer) and Biomek FX (Beckman Coulter) so that the highest compound concentration was at 96 μM. Compounds were then pinged (75 nL per well) into a Greiner 384-well reaction plate (Greiner, #781076) using an ECHO 550 Liquid Handler (Labcyte). A total of 12 μl reaction buffer (IMAP buffer containing Tween and DTT, from Molecular Devices) was then added to each well of columns 1 and 13 for the negative controls and 12 μl of 2×AAK1 (0.2 nM full-length human protein, NCBI accession no. NP_055726.2) was added to the remaining wells. Enzyme was then pre-incubated with compound for 10 minutes at RT. Reactions were initiated upon Minitrak (PerkinElmer) addition of 12 μl substrate mix containing 2×Mu2 (0.2 μM, full length human protein), 2× cold ATP (2 μM), and 1.3 μCi of hot ^33P-ATP. Reactions proceeded for one hour at RT. Meanwhile, Millipore 384-well P81 filter plates (Millipore, catalog # MZPHN0W10) were placed on a plate washer (Zoom ZW, from Titertek) and pre-wet with 50 μl […] phosphoric acid. Kinase reactions were then stopped upon addition of 24 μl of 2% phosphoric acid to each well and the Minitrak was then used to transfer 40 μl from each well into the pre-wet Millipore 384-well P81 filter plates. Reaction mixtures were incubated for 10 minutes at room temperature in the P81 plates, followed by washing five times with 100 μl/well of 1% phosphoric acid using the Zoom filter washer. The bottom of each filter plate was sealed followed by addition of 20 μl Microscint 40 to each well, sealing the top of the plates with Flashplate cover, and then waiting one hour until reading on the TopCount (PerkinElmer).

AAK1 = biological target: T2, AAK1 (Homo sapiens, UniProt Q2M2I8); assay: HEK281 cell-based assay (phospho-mu2 Western blot in transfected HEK293F cells); conditions: HEK293F cells transfected with human AAK1 and AP2M1, 3 hours, read-out: CBA IC50
T2 construct: expressed in transfected cells; host or cells: HEK293F
Experimental: HEK293F cells were cultured in media containing DMEM (Gibco, cat. #11965), 10% FBS (SAFC Biosciences, cat. #12103C), 1×GPS (glutamine, penicillin and streptomycin). On day one, cells were plated on a 10 cm dish so that they are ˜80% confluent at time of transfection. Roughly 12 million cells were in a 10 cm dish at time of transfection. On day two, each dish was transfected with 48 ug DNA and 144 ul Lipofectamine 2000 (Invitrogen, cat.#11668-019). The DNA was comprised of a mixture (per 10 cm dish) containing 3 ug AAK1/HA/pIRES (full length human, NCBI accession no. NP_055726.2), 45 μg Flag/AP2MI/pcDNA (full length human), and 1.5 ml OPTI-MEM. The Lipofectamine 2000 is made up of a mixture (per 10 cm dish) containing 144 μl Lipofectamine 2000 and 1.5 ml OPTI-MEM. Each mixture was transferred to individual 15 ml tubes and incubated at room temperature for 5 minutes, and then the two mixes were combined and incubated at room temperature for 20 minutes. Growth media was then aspirated from each 10 cm plate and replaced with 10 ml of DMEM+10% FBS (no GPS). Finally, 3 ml DNA/Lipofectamine mix was added to each 10 cm dish and mix gently followed by incubate of plate overnight at 37° C. and 5% CO2.
On day three, compounds were diluted in 100% DMSO at 1000× final concentration, followed by 3-fold serial dilutions for a total of 5 concentrations tested. Four compounds were tested per 10 cm dish. One ul of each compound dilution was then pipetted into a deep-well, 96-well plate, followed by addition of 500 μl DMEM+0.5% FBS into each well for a 2× final concentration of each compound. Cells were resuspended in a 10 cm dish by simple pipetting (HEK293 cells come off the plate that easy at this point) and then transferred to a 50 ml conical tube and pelleted by centrifugation at 1000 rpm for 5 min. Cell pellets were then resuspended in 2.75 ml DMEM+0.5% FBS per 10 cm dish and 100 μl of cell suspension transferred into each well of 96-well TC plate. Finally, 100 μl of 2× compound diluted in DMEM+0.5% FBS was then added into wells containing cell suspension for a 1× final concentration. Plates were then incubated at 37° C. and 5% CO2 for 3 hours followed by transferring of cell suspensions from each well into 12-tube PCR strips. The PCR strips were spun in a tip rack at 1000 rpm for 5 minutes to pellet cells and media was then removed by pipetting without disturbing the cell pellet.
To prepare for Western Blot analysis, cell pellets were resuspend in 40 ul 1×LDS-PAGE sample buffer (Invitrogen, cat.# NP0008)+2× Halt phophatase and protease inhibitor cocktail (Thermo Scientific, cat.#1861284), followed by sonicating each with microtip sonicator set at 5 for 8-10 seconds. Five ul of 10× NuPage Sample Reducing Agent (with […]) was to each sample followed by heat denaturing at 70 C for 10 min on PCR machine. A total of 10 μl per sample was loaded into each lane of a 4-20% Tris-Glycine Criterion 26-well gel (Biorad, cat.#345-0034) for the phospho-mu2 blot and 10 μl per lane in a 4-12% Bis-Tris (+MES buffer) NuPAGE 26-well gel (Invitrogen, cat.# WG1403BX10) for the mu2 blot. For controls, 2 ng of phospho-mu2 or 20 ng mu2/Flag proteins were loaded in the last well of each gel. After SDS-PAGE, samples on each gel were transferred to PVDF membrane using an iBlot and membranes were blocked for one hour in TBST+5% milk, followed by wash 3× for 5-10 min with TBST. Criterion gels were probed with rabbit anti-phospho-mu2 (1:5000; a rabbit polyclonal antibody produced by New England Peptide and affinity purified at Lexicon) in TBST+5% BSA, whereas, NuPAGE gels were probed with mouse anti-Flag (1:500; Sigma, cat.# F1804) in TBST+5% milk, and these primary antibodies were incubated overnight at 4° C. on a rocker. […]

T1 sequence (Q2M2I8 1-863 isoform Q2M2I8-2): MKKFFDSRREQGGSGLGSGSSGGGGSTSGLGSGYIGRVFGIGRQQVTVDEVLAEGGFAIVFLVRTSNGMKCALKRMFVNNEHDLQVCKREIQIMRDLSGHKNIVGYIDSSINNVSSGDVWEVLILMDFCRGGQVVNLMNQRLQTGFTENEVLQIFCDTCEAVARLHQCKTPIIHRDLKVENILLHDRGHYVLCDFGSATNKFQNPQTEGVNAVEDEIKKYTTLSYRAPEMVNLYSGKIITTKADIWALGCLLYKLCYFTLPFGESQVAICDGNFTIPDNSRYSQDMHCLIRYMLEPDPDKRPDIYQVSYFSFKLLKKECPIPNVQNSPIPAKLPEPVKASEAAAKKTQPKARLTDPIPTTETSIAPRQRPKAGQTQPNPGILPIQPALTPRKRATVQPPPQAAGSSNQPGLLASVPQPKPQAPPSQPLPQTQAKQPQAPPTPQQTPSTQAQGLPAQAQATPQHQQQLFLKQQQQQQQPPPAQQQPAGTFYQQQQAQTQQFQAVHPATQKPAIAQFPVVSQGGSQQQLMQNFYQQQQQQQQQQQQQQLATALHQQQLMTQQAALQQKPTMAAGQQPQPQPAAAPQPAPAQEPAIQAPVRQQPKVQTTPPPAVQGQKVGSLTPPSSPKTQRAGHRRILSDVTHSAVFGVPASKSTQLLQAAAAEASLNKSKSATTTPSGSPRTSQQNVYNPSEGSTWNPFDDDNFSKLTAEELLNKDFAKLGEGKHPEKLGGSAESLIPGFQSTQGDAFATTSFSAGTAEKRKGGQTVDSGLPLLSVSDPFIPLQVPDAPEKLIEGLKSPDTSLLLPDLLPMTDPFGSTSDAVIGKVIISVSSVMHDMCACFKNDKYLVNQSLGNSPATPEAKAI
T2 sequence (Q2M2I8 1-863 isoform Q2M2I8-2): as above

| Structure (SMILES) | IC50 [1] [nM] | IC50 (AAK1; class symbols) [nM] | IC50 (AAK1; numeric bounds) [nM] |
| --- | --- | --- | --- |
| COc1ncccc1-c1cnn2ccc(-c3ccn(CCOC(C)C)c(=O)c3)nc12 [1-(2-isopropoxyethyl)-4-(3-(2-methoxypyridin-3-yl)pyrazolo[1,5-a]pyrimidin-5-yl)pyridin-2(1H)-one] | ≤ 100 | ≤ 10 |  |
| COCCn1ccc(-c2ccn3ncc(-c4cccnc4OC)c3n2)cc1=O [1-(2-methoxyethyl)-4-(3-(2-methoxypyridin-3-yl)pyrazolo[1,5-a]pyrimidin-5-yl)pyridin-2(1H)-one] | ≤ 10 | ≤ 10 |  |
| COc1ncccc1-c1cnn2ccc(-c3ccn(CCC(C)(C)C)c(=O)c3)nc12 [1-(3,3-Dimethylbutyl)-4-(3-(2-methoxypyridin-3-yl)pyrazolo[1,5-a]pyrimidin-5-yl)pyridin-2(1H)-one] | ≤ 10 | ≤ 10 |  |
| COc1ccc(F)cc1-c1cnn2ccc(-c3ccn(CCC(C)(C)C)c(=O)c3)nc12 [1-(3,3-Dimethylbutyl)-4-(3-(5-fluoro-2-methoxyphenyl)pyrazolo[1,5-a]pyrimidin-5-yl)pyridin-2(1H)-one] | ≤ 10 | ≤ 10 |  |
| COc1ncc(F)cc1-c1cnn2ccc(-c3ccn(CCC(C)(C)C)c(=O)c3)nc12 [1-(3,3-dimethylbutyl)-4-(3-(5-fluoro-2-methoxypyridin-3-yl)pyrazolo[1,5-a]pyrimidin-5-yl)pyridin-2(1H)-one] | ≤ 10 | ≤ 10 |  |
| COc1ncccc1-c1cnn2ccc(-c3ccn(CC(C)C)c(=O)c3)nc12 [1-isobutyl-4-(3-(2-methoxypyridin-3-yl)pyrazolo[1,5-a]pyrimidin-5-yl)pyridin-2(1H)-one] | ≤ 10 | ≤ 10 |  |
| COc1nc(C)ccc1-c1cnn2ccc(-c3ccn(CCC(C)C)c(=O)c3)nc12 [1-isopentyl-4-(3-(2-methoxy-6-methylpyridin-3-yl)pyrazolo[1,5-a]pyrimidin-5-yl)pyridin-2(1H)-one] | ≤ 10 | ≤ 10 |  |
| COc1ncccc1-c1cnn2ccc(-c3ccn(CCC(C)C)c(=O)c3)nc12 [1-isopentyl-4-(3-(2-methoxypyridin-3-yl)pyrazolo[1,5-a]pyrimidin-5-yl)pyridin-2(1H)-one] | ≤ 10 | ≤ 10 |  |
| CC(C)CCn1ccc(-c2ccn3ncc(C(F)(F)F)c3n2)cc1=O [1-isopentyl-4-(3-(trifluoromethyl)pyrazolo[1,5-a]pyrimidin-5-yl)pyridin-2(1H)-one] |  | ≤ 100 |  |
| CC(C)CCn1ccc(-c2ccn3nccc3n2)cc1=O [1-isopentyl-4-(pyrazolo[1,5-a]pyrimidin-5-yl)pyridin-2(1H)-one] |  | ≤ 100 |  |
| COc1cc(-c2ccn3ncc(-c4cc(F)ccc4OC)c3n2)ccn1 [3-(5-fluoro-2-methoxyphenyl)-5-(2-methoxypyridin-4-yl)pyrazolo[1,5-a]pyrimidine] | ≤ 1000 | ≤ 10 |  |
| CC(C)CCn1ccc(-c2ccn3ncc(Cl)c3n2)c(Cl)c1=O [3-chloro-4-(3-chloropyrazolo[1,5-a]pyrimidin-5-yl)-1-isopentylpyridin-2(1H)-one] |  | ≤ 100 |  |
| CCOc1ncccc1-c1cnn2ccc(-c3ccn(CCC(C)C)c(=O)c3)nc12 [4-(3-(2-ethoxypyridin-3-yl)pyrazolo[1,5-a]pyrimidin-5-yl)-1-isopentylpyridin-2(1H)-one] | ≤ 10 | ≤ 10 |  |
| COc1nc(C)ccc1-c1cnn2ccc(-c3ccn(CCC(F)(F)F)c(=O)c3)nc12 [4-(3-(2-methoxy-6-methylpyridin-3-yl)pyrazolo[1,5-a]pyrimidin-5-yl)-1-(3,3,3-trifluoropropyl)pyridin-2(1H)-one] | ≤ 100 | ≤ 10 |  |
| COc1ncccc1-c1cnn2ccc(-c3ccn(CCN4CCOCC4)c(=O)c3)nc12 [4-(3-(2-methoxypyridin-3-yl)pyrazolo[1,5-a]pyrimidin-5-yl)-1-(2-morpholinoethyl)pyridin-2(1H)-one] | ≤ 10 | ≤ 10 |  |
| CC(C)(C)CCn1ccc(-c2ccn3ncc(Br)c3n2)cc1=O [4-(3-bromopyrazolo[1,5-a]pyrimidin-5-yl)-1-(3,3-dimethylbutyl)pyridin-2(1H)-one] |  | ≤ 100 |  |
| C1=C(c2ccn3nccc3n2)CCNC1 [5-(1,2,3,6-tetrahydropyridin-4-yl)pyrazolo[1,5-a]pyrimidine] |  |  | > 300 |
| CC(C)Oc1cc(-c2ccn3ncc(CO)c3n2)ccn1 [(5-(2-isopropoxypyridin-4-yl)pyrazolo[1,5-a]pyrimidin-3-yl)methanol] |  |  | > 300 |
| COc1ncccc1-c1cnn2ccc(-c3ccc(C(=O)OC(C)C)cc3)nc12 [isopropyl 4-(3-(2-methoxypyridin-3-yl)pyrazolo[1,5-a]pyrimidin-5-yl)benzoate] |  | ≤ 10 |  |
| CC(C)OC(=O)c1ccc(-c2ccn3ncc(Br)c3n2)cc1 [isopropyl 4-(3-bromopyrazolo[1,5-a]pyrimidin-5-yl)benzoate] |  | ≤ 100 |  |
| CC(C)OC(=O)c1ccc(-c2ccn3ncc(I)c3n2)cc1 [isopropyl 4-(3-iodopyrazolo[1,5-a]pyrimidin-5-yl)benzoate] |  | ≤ 100 |  |
| CC(C)OC(=O)c1ccc(-c2ccn3nccc3n2)cc1 [isopropyl 4-(pyrazolo[1,5-a]pyrimidin-5-yl)benzoate] |  | ≤ 1000 |  |
| COc1ncccc1-c1cnn2ccc(CCCN(C)C(=O)OC(C)C)nc12 [isopropyl (3-(3-(2-methoxypyridin-3-yl)pyrazolo[1,5-a]pyrimidin-5-yl)propyl)(methyl)carbamate] |  | ≤ 100 |  |
| COc1ncccc1-c1cnn2ccc(CCCCN(C)C(=O)OC(C)C)nc12 [isopropyl (4-(3-(2-methoxypyridin-3-yl)pyrazolo[1,5-a]pyrimidin-5-yl)butyl)(methyl)carbamate] |  | ≤ 100 |  |
| CC(C)OC(=O)N(C)CCCCc1ccn2ncc(Br)c2n1 [isopropyl (4-(3-bromopyrazolo[1,5-a]pyrimidin-5-yl)butyl)(methyl)carbamate] |  |  | > 300 |
| CC(C)(C)OC(=O)N1CC=C(c2ccn3nccc3n2)CC1 [tert-butyl 4-(pyrazolo[1,5-a]pyrimidin-5-yl)-5,6-dihydropyridine-1(2H)-carboxylate] |  | ≤ 100 |  |
